Consider four compounds from patent publication US9227977B2, “Phosphoinositide 3-kinase inhibitors” (RESPIVERT LTD., priority 2013, dated 2016).

pIC50: −log10 of the molar value. Like-named read-outs stand apart in the source and are kept apart here. Bounds are passed on as bounds.

Series [1] deals with cigarette smoke-induced cell accumulation and biomarkers in murine BALF. As to the kind of experiment: Cigarette smoke model. The following applies: 0.3-10 mg/kg, p.o. Format: in vivo, mouse.
The next series concerns the target PI3K α (Homo sapiens (Human), UniProt P42336). The experiment in a line: PI3K enzyme inhibition assay (HTRF TR-FRET). Format: biochemical. From the text: (§1) The PI3K enzymes catalyse the phosphorylation of phosphatidylinositol 4,5-biphosphate (PIP2) to phosphatidylinositol 3,4,5-triphosphate (PIP3) in the presence of ATP and Mg^2+ ions. The PIP3 product can be detected by displacement of biotin-PIP3 from energy transfer complexes consisting of europium labelled anti-GST monoclonal antibody, a GST-tagged Pleckstrin homology (PH) domain, biotinylated PIP3 and streptavidin-allophycocyanin (APC) by the time-resolved fluorescence resonance energy transfer (TR-FRET) (HTRF®PI3K enzyme assay, Millipore). Excitation, at 330 nm, of europium in the complex results in an energy transfer to the APC and a fluorescent emission at 665 nm although europium itself emits at its characteristic wavelength of 620 nm. The PIP3 product formed by PI3K activity displaces biotin-PIP3 from the complex and results in a loss of energy transfer (decreasing signal).
(§2) The compound to be tested was added, at the desired final concentrations, to a mixture of PIP2 substrate and a recombinant PI3K enzyme (either α, β or δ isoforms, ex Millipore, or γ isoform [p110γ+p101 construct], ex United States Biological, Swampscott, Mass.) and the mixture incubated for 2 hr at RT. […] A stopping solution containing biotinylated PIP3 and the detection mix containing the GST tagged GRP1 pleckstrin homology (PH) domain and fluorophores were then added and the mixture was incubated at RT for 15-18 hr, prior to detection in a fluorescence microplate reader (Synergy 4, BioTek UK, Bedfordshire, UK).
(§3) The results were calculated according to the formula: APC signal (emission at 665 nm)/europium signal (emission at 620 nm)×10^4.
A general note: Time-resolved FRET reads energy transfer from a long-lived donor to a nearby acceptor.

In the next series the target is PI3K γ (Homo sapiens (Human), UniProt P48736). The experiment in a line: PI3K enzyme inhibition assay (HTRF TR-FRET). Format: biochemical.
Source text: as §1, §2, §3

The target of a further series is PI3K δ (Homo sapiens (Human), UniProt O00329). The experiment in a line: PI3K enzyme inhibition assay (HTRF TR-FRET). Format: biochemical.
Source text: as §1, §2, §3

A further series concerns the target PI3K β (Homo sapiens (Human), UniProt P42338). The experiment in a line: PI3K enzyme inhibition assay (HTRF TR-FRET). The following applies: read-out: PI3 Kinase Inhibition IC50 value at state isozyme, β. The format is biochemical.
Source text: as §1
The compound to be tested was added, at the desired final concentrations, to a mixture of PIP2 substrate and a recombinant PI3K enzyme (either α, β or δ isoforms, ex Millipore, or γ isoform [p110γ+p101 construct], ex United States Biological, Swampscott, Mass.) and the mixture incubated for 2 hr at RT. Following this incubation period, ATP (10 μM) was added to the enzyme/compound/PIP2 substrate mixture and the resulting mixture was incubated for a further 30 min at RT. A stopping solution containing biotinylated PIP3 and the detection mix containing the GST tagged GRP1 pleckstrin homology (PH) domain and fluorophores were then added and the mixture was incubated at RT for 15-18 hr, prior to detection in a fluorescence microplate reader (Synergy 4, BioTek UK, Bedfordshire, UK).
The results were calculated according to the formula: APC signal (emission at 665 nm)/europium signal (emission at 620 nm)×10^4. The percentage inhibition of each reaction was calculated relative to DMSO treated control, and the 50% inhibitory concentration (IC50 value) then calculated from the concentration-response curve.

Another series deals with d-U937 cells. As to the kind of experiment: MTT assay, cell viability. Format: cell-based, human. Conditions: 10 μg/mL. The method, then:
PMA-differentiated U937 cells were pre-incubated with test compound (10 μg/mL) or vehicle for 4 hr in 5% FCS or 10% FCS for 24 hr. The supernatant was replaced with new media (200 μL) and MTT stock solution (10 μL, 5 mg/mL) was added to each well. After 1 hr incubation, the media were removed, 200 μL of DMSO was added to each well and the plates were shaken lightly for 1 hr prior to reading the absorbance at 550 nm. The percentage loss of cell viability was calculated for each well relative to vehicle (0.5% DMSO)-treatment.
For orientation: Tetrazolium assays rely on reduction of a dye to a coloured formazan, in cell work by metabolically active cells.

In series [2] the test system is cigarette smoke-induced cell accumulation and biomarkers in murine BALF. The experiment in a line: Cigarette smoke model. The format is in vivo, mouse. Conditions: dose used for co-administration. The method, then: A/J mice (males, 5 weeks old) were exposed to cigarette smoke (4% cigarette smoke, diluted with compressed air) for 30 min/day for 11 days using a Tobacco Smoke Inhalation Experiment System for small animals (Model SIS-CS; Sibata Scientific Technology, Tokyo, Japan). Test substances were administered once daily for 3 days after the final cigarette smoke exposure (intra-nasal dose comprising 35 μL of solution in 50% DMSO/isotonic saline).
At 12 hr after administration of the last dose, animals were anesthetized, the trachea was cannulated and bronchial alveolar lavage (BAL) was carried out by the instillation into and then withdawal from the lungs, of PBS (100 mL/kg). Total cell numbers in the BALF samples were measured using a haemocytometer under a phase-contrast microscope. The proportions of alveolar macrophages and neutrophils were determined by FACS analysis using anti-mouse MOMA2-FITC (macrophage) or anti-mouse 7/4 (neutrophil).
Cells were suspended in PBS and were incubated with anti-MOMA2-FITC (2 μg/mL, Catalogue no SM065F, Acris Antibodies GmbH, Herford, Germany) or anti-7/4-FITC (2 μg/mL, Catalogue no CL050F, Acris Antibodies GmbH, Herford, Germany) for 30 min at 30° C., and also counterstained with propidium iodide (2 μg/mL) to allow exclusion of necrotic cells. The cells were washed with PBS, and transferred to FACS tubes. Samples was set in a flow cytometer (ALTRA II; Beckman Coulter Japan, Tokyo, Japan), and a single-parameter FL2 [PMT2] (FITC) histogram with log x-axis was plotted to illustrate relative intensity of FITC.
Data files are stored for subsequent analysis using Kaluza analysis software (ver. 1.2) to calculate the proportion of each cell type. The levels of CXCL1(KC), MCP1, TNFα, IL-17 or osteopontin in BALF were determined using Quentikine® mouse KC, MCP1, TNFα, IL-17 or osteopontin ELISA kit (R&D systems, Inc., Minneapolis, Minn., USA). The presence of malondialdehyde was measured using OxiSelect® TBARS Assay Kit (MDA Quantitation; Cell Biolabs Inc, San Diego, Calif., USA).

Chain of PI3K γ (P48736 whole entry, species assumed): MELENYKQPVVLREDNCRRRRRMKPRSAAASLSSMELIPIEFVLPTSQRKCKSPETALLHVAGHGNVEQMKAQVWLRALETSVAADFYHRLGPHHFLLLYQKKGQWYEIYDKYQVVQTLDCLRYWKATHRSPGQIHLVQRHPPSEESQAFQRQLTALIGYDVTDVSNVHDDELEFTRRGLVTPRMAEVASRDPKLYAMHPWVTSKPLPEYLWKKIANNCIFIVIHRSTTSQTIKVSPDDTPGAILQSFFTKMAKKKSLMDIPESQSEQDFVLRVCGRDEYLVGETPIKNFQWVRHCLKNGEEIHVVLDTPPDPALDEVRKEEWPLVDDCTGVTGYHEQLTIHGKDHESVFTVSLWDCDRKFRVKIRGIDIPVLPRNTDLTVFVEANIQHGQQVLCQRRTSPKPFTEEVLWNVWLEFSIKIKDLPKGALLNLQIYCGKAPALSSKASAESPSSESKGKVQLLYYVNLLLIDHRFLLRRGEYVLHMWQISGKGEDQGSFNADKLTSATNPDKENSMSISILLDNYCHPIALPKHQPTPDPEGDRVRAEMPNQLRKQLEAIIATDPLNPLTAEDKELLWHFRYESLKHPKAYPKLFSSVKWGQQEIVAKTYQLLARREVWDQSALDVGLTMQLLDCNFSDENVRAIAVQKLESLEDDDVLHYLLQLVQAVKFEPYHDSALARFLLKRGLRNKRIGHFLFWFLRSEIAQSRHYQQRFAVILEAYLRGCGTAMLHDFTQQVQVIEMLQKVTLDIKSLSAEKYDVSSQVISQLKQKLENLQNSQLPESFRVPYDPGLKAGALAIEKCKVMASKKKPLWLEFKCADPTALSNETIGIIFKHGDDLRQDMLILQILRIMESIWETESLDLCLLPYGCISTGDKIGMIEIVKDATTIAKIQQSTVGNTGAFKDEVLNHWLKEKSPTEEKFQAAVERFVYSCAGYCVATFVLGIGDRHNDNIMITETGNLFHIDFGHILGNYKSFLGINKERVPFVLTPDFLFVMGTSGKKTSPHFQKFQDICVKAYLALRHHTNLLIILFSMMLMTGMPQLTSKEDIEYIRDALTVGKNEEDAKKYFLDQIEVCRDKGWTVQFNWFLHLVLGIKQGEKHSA
Chain of PI3K γ (Q8WYR1 whole entry partner, species assumed): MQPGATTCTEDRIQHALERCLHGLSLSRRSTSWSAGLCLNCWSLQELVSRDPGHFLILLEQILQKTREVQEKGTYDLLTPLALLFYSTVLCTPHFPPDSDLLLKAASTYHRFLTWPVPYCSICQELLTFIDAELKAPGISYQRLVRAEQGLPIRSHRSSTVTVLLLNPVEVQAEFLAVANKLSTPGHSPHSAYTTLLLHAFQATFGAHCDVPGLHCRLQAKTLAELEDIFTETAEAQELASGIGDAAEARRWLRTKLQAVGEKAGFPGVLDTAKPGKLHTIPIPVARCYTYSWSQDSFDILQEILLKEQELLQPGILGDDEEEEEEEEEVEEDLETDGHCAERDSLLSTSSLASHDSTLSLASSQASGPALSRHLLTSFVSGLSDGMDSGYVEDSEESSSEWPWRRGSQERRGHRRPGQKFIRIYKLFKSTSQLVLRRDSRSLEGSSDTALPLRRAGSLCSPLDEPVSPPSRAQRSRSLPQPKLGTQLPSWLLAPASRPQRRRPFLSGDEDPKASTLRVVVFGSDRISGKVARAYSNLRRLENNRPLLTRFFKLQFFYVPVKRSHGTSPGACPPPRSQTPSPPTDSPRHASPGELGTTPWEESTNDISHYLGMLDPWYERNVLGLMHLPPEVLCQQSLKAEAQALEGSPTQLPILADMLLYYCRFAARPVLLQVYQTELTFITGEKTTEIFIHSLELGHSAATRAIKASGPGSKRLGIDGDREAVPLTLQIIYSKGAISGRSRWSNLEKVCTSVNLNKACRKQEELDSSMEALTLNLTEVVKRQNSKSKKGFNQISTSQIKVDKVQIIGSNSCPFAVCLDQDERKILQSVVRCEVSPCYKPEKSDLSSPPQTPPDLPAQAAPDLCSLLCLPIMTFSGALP
Chain of PI3K δ (O00329 whole entry, species assumed): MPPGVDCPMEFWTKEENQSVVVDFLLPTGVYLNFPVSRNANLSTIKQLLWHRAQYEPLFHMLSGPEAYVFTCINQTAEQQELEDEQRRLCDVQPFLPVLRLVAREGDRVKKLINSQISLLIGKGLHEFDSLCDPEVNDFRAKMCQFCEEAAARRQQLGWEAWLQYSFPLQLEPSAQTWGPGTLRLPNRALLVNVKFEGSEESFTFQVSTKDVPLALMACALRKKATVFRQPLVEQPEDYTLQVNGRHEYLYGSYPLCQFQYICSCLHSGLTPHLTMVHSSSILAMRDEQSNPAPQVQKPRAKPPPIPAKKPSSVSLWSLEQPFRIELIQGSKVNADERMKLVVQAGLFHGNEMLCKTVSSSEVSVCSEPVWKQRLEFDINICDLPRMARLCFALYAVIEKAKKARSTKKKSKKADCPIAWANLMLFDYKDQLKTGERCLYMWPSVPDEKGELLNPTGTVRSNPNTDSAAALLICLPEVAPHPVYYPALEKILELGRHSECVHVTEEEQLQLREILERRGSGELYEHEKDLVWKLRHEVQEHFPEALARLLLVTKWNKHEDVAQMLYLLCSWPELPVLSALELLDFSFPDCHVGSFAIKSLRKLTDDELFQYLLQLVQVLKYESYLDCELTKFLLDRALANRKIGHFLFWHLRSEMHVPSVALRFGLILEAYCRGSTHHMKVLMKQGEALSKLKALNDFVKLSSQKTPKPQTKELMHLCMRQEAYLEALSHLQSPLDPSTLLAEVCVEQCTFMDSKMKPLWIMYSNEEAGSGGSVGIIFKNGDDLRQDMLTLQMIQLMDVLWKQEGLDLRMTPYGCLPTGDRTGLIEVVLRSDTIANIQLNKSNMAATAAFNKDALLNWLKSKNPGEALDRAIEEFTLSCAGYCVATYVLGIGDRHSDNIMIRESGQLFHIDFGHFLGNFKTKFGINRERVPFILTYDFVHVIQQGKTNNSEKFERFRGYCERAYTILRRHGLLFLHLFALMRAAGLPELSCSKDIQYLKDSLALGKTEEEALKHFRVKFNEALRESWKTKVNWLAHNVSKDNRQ
Chain of PI3K δ (P27986 whole entry partner, species assumed): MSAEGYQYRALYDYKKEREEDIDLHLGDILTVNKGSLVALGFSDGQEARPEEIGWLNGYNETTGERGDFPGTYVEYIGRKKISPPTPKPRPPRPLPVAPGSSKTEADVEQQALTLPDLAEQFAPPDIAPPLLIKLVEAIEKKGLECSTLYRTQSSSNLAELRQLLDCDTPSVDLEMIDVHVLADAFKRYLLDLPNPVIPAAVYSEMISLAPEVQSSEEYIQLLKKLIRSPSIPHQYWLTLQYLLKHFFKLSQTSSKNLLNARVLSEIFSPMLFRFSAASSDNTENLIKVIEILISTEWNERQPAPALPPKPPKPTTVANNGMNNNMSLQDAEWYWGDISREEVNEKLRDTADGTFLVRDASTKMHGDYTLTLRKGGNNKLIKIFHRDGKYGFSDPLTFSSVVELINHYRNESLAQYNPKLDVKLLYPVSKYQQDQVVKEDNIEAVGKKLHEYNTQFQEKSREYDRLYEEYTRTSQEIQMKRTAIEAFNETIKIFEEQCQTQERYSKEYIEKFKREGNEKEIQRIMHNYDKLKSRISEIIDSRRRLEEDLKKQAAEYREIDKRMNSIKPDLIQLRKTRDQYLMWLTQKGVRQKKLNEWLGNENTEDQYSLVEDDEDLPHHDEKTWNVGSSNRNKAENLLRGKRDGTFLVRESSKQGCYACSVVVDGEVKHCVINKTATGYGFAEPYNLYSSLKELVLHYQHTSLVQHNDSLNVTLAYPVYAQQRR
Chain of PI3K α (P42336 whole entry, species assumed): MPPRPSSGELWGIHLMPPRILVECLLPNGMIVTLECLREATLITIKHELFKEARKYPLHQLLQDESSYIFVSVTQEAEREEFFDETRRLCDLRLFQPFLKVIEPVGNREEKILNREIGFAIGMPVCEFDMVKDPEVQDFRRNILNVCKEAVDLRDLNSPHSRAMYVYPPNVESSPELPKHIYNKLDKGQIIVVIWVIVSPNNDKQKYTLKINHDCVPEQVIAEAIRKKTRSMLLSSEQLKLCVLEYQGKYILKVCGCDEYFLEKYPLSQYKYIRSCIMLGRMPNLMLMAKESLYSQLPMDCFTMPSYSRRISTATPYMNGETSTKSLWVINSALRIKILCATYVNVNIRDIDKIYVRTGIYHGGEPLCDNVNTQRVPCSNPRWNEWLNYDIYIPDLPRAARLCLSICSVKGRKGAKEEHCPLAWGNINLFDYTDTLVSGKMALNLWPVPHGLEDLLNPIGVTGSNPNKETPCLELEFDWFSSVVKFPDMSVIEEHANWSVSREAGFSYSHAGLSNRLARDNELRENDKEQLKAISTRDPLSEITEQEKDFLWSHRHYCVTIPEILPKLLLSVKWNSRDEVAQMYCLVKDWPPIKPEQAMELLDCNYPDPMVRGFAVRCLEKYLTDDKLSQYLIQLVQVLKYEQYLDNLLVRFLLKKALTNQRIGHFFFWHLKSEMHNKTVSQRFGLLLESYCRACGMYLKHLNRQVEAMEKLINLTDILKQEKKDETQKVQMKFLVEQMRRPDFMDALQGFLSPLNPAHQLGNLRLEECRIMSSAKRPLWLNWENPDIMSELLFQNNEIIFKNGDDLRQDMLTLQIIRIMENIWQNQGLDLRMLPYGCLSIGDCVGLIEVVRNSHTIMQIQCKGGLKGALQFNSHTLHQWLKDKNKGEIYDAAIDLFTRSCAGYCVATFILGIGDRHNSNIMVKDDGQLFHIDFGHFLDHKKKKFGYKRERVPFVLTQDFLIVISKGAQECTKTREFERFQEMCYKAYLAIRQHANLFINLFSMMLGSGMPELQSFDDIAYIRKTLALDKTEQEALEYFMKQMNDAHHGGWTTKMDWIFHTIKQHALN
Chain of PI3K α (P27986 whole entry partner, species assumed): as the sequence (P27986 whole entry partner, species assumed) above

`C[C@@H]1C[C@H]2[C@@H]3CCC4=CC(=O)C=C[C@]4(C)[C@@]3(F)[C@@H](O)C[C@]2(C)[C@@]1(O)C(=O)CO` [dexamethasone]: the “activity in cigarette smoke model (in words)” value in series [1] was “inactive”.

For `Nc1ncnc2c1c(-c1cc(O)cc(F)c1)nn2Cc1nc2cccc(C#CCOCCOCCO)c2c(=O)n1Cc1ccccc1C(F)(F)F` [Compound (Ia), 2-((4-Amino-3-(3-fluoro-5-hydroxyphenyl)-1H-pyrazolo[3,4-d]pyrimidin-1-yl)methyl)-5-(3-(2-(2-hydroxyethoxy)ethoxy)prop-1-yn-1-yl)-3-(2-(trifluoromethyl)benzyl)quinazolin-4(3H)-one], the pIC50 was less than 4.85 on PI3K α (read-out: PI3 Kinase Inhibition IC50 value at state isozyme, α); 6.24 at PI3K γ (read-out: PI3 Kinase Inhibition IC50 value at state isozyme, γ); 7.77 at PI3K δ (read-out: PI3 Kinase Inhibition IC50 value at state isozyme, δ); less than 4.85 at PI3K β. Moreover, the “inhibition of PI3K γ compared with compound of formula (I) (in words)” value on PI3K γ is recorded as “significantly less active”. In addition, the “inhibition of PI3K δ compared with compound of formula (I) (in words)” value at PI3K δ is reported as “significantly less active”. Besides, the “Cell Viability MTT Assay in d-U937 cells at 4 hr” value with d-U937 cells (4 hr) was “−ve (−ve indicates a value of <30% inhibition at 10 μg/mL)”. Besides, in the series with d-U937 cells (24 hr), the “Cell Viability MTT Assay in d-U937 cells at 24 hr” value is listed as “−ve (−ve indicates a value of <30% inhibition at 10 μg/mL)”.

As to `COCCOCCOCC#Cc1cccc2nc(Cn3nc(-c4cccc(O)c4)c4c(N)ncnc43)n(Cc3ccccc3F)c(=O)c12` [Example 50, 2-((4-amino-3-(3-hydroxyphenyl)-1H-pyrazolo[3,4-d]pyrimidin-1-yl)methyl)-3-(2-fluorobenzyl)-5-(3-(2-(2-methoxyethoxy)ethoxy)prop-1-ynyl) quinazolin-4(3H)-one, reference compound], the pIC50 at PI3K α (read-out: IC50 Values for PI3K inhibition at isozyme indicated, PI3K α) is 6.19; at PI3K γ (read-out: IC50 Values for PI3K inhibition at isozyme indicated, PI3K γ), 6.92; on PI3K δ (read-out: IC50 Values for PI3K inhibition at isozyme indicated, PI3K δ), 8.24.

As for `CCC(=O)O[C@]1(C(=O)SCF)[C@H](C)C[C@H]2[C@@H]3C[C@H](F)C4=CC(=O)C=C[C@]4(C)[C@@]3(F)[C@@H](O)C[C@@]21C` [fluticasone propionate, reference compound], the “effect as monotherapy in cigarette smoke model (in words)” value in series [2] is on record as “lacks any significant effect”.

As usually defined, the pIC50 is the negative decadic logarithm of the IC50, by convention in mol/L.
